Our source for the TGI and GI50 values is PubChem BioAssay (NCI).

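Each compound was tested at five concentrations against cells in 96-well plates for 48 hours. Abbreviation: GI50, concentration required for 50% inhibition of growth. TGI: concentration producing complete growth inhibition.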

Broadly, the TGI is the concentration giving total growth inhibition. A low value points to more potent growth arrest. By GI50 is commonly meant the concentration at which growth is held to half of that of the control.

Test systems include A549 NSCLC; SNB-19 CNS; MDA-MB-231 breast; RPMI-8226 leukemia; OVCAR-3 ovarian; HOP-92 NSCLC; SR leukemia; EKVX NSCLC; OVCAR-8 ovarian; M14 melanoma; OVCAR-5 ovarian.
Holding throughout (assay): DTP human tumour cell line panel, 48 h

With `CN(C)Cc1cc(C(=O)/C=C/c2c(Cl)cccc2Cl)cc(CN(C)C)c1O`, the TGI came to 29.5 µM in the test on A549 NSCLC; 31 µM with SNB-19 CNS; 15.1 µM in the test with MDA-MB-231 breast; 39 µM in the test on RPMI-8226 leukemia; 23.6 µM with OVCAR-3 ovarian; 9.06 µM in the test on HOP-92 NSCLC. In addition, the TGI in the test with SR leukemia is 22.6 µM; in the test with EKVX NSCLC it was 23.2 µM; in the test with OVCAR-8 ovarian, 15.2 µM; in the test with M14 melanoma, 18.9 µM; in the test on OVCAR-5 ovarian, 32.2 µM.

With `O=c1c2cc([N+](=O)[O-])cnc2sn1-c1ccc(Oc2ccccc2)cc1`, the TGI was more than 100 µM with A549 NSCLC; more than 100 µM in the test with SNB-19 CNS; 90.7 µM in the test on MDA-MB-231 breast; more than 100 µM in the test on RPMI-8226 leukemia; more than 100 µM in the test on OVCAR-3 ovarian; 90.2 µM in the test on HOP-92 NSCLC. Also, the TGI with SR leukemia, with EKVX NSCLC, with OVCAR-8 ovarian, in the test with M14 melanoma and in the test with OVCAR-5 ovarian was more than 100 µM each time.

As for `COC(=O)CC1CN(C(=O)OCc2ccccc2)C(C)(C)O1` (stereo not drawn), the concentration for total growth inhibition (TGI) in the test with A549 NSCLC, in the test on SNB-19 CNS, with MDA-MB-231 breast, in the test on RPMI-8226 leukemia, in the test on OVCAR-3 ovarian and in the test on HOP-92 NSCLC was more than 100 µM in each case. In addition, the TGI in the test on SR leukemia, in the test on EKVX NSCLC, in the test with OVCAR-8 ovarian, with M14 melanoma and in the test on OVCAR-5 ovarian was more than 100 µM in each case.

`Cc1ccc(S(=O)(=O)Oc2coc(CO)cc2=O)cc1`: the TGI is 28.1 µM in the test with A549 NSCLC; 27.8 µM in the test with SNB-19 CNS; 41.7 µM in the test on MDA-MB-231 breast; 36.5 µM with RPMI-8226 leukemia; 31.9 µM with OVCAR-3 ovarian; 39.6 µM with HOP-92 NSCLC. The TGI with SR leukemia was more than 85.5 µM; with EKVX NSCLC, 30.1 µM; in the test with OVCAR-8 ovarian, more than 50 µM; in the test with M14 melanoma, 25.9 µM; in the test with OVCAR-5 ovarian, 31.8 µM.

As for `COC(=O)c1cccc(C)c1C1CN=NC12Cc1c(ccc(C)c1C)C2=O` (stereo not drawn), the TGI in the test with A549 NSCLC is more than 100 µM; with SNB-19 CNS, more than 100 µM; with MDA-MB-231 breast it was more than 100 µM; with RPMI-8226 leukemia, 96.2 µM; in the test with OVCAR-3 ovarian, more than 100 µM; with HOP-92 NSCLC it was more than 100 µM. Further, the TGI with SR leukemia is more than 100 µM; with EKVX NSCLC it was 57.9 µM; in the test on OVCAR-8 ovarian it was more than 100 µM; in the test with M14 melanoma, more than 100 µM; in the test with OVCAR-5 ovarian it was more than 100 µM.

Turning to `COCC1OCCN1C` (stereo not drawn), the TGI with A549 NSCLC, in the test with SNB-19 CNS, in the test with MDA-MB-231 breast, with RPMI-8226 leukemia, in the test on OVCAR-3 ovarian and in the test with HOP-92 NSCLC was more than 100 µM each time. In addition, the TGI with SR leukemia, with EKVX NSCLC, in the test with OVCAR-8 ovarian, in the test with M14 melanoma and in the test with OVCAR-5 ovarian was more than 100 µM each time.

Consider `CCC/C(Cl)=N\OC(=O)Nc1ccc(Br)cc1`, for which the TGI was 45.2 µM in the test with A549 NSCLC; more than 59.7 µM with SNB-19 CNS; 33.8 µM in the test with MDA-MB-231 breast; 12.2 µM in the test on RPMI-8226 leukemia; 16.3 µM in the test on OVCAR-3 ovarian; 9.17 µM in the test on HOP-92 NSCLC. The TGI came out at 18.4 µM in the test on SR leukemia; 29 µM in the test with EKVX NSCLC; 28.9 µM with OVCAR-8 ovarian; 25.2 µM in the test with M14 melanoma; 27.8 µM in the test with OVCAR-5 ovarian.

As for `C/C(=C\c1csc(C)n1)[C@@H]1C[C@@H]2O[C@]2(C)CCC[C@H](C)[C@H](O)[C@@H](C)C(=O)C(C)(C)[C@@H](O)CC(=O)O1` (tested in a mixture with another compound), the TGI in the test on A549 NSCLC was more than 1 µM; in the test with SNB-19 CNS, more than 1 µM; with MDA-MB-231 breast it was more than 0.346 µM; in the test on RPMI-8226 leukemia it was more than 0.172 µM; in the test with OVCAR-3 ovarian it was 0.0839 µM; in the test with HOP-92 NSCLC, more than 1 µM. The TGI was more than 0.239 µM in the test with SR leukemia; more than 1 µM in the test with EKVX NSCLC; more than 0.33 µM with OVCAR-8 ovarian; more than 1 µM with M14 melanoma; more than 1 µM in the test with OVCAR-5 ovarian. Besides, in the test on SNB-19 CNS, the GI50 was 0.025 µM.

Regarding `CCC1=NC(N/N=C/c2ccccc2O)=N/C1=C\c1ccccc1O`, the TGI in the test on A549 NSCLC is more than 100 µM; with SNB-19 CNS, more than 100 µM; with MDA-MB-231 breast, more than 100 µM; with RPMI-8226 leukemia it was 53.8 µM; in the test with OVCAR-3 ovarian, 12.6 µM; in the test with HOP-92 NSCLC, more than 84 µM. In addition, the TGI with SR leukemia was more than 100 µM; in the test with EKVX NSCLC it was more than 100 µM; with OVCAR-8 ovarian, more than 69.2 µM; in the test on M14 melanoma, 51.9 µM; in the test with OVCAR-5 ovarian it was more than 100 µM.

For `CC1=C/C(=N\N(C)C)C(C(O)(C(F)(F)F)C(F)(F)F)C(C)(C)C1` (stereo not drawn), the TGI in the test with A549 NSCLC is more than 100 µM; in the test with SNB-19 CNS it was more than 100 µM; in the test on MDA-MB-231 breast, more than 100 µM; in the test on RPMI-8226 leukemia, more than 100 µM; in the test with OVCAR-3 ovarian it was 87.8 µM; in the test with HOP-92 NSCLC, 81 µM. In addition, the TGI with SR leukemia, with EKVX NSCLC, in the test on OVCAR-8 ovarian, in the test with M14 melanoma and in the test with OVCAR-5 ovarian was more than 100 µM in each case.

Consider `CC1(C)C[C@H]2C3=CC[C@@H]4[C@@]5(C)CC[C@H](O)C(C)(C)[C@@H]5CC[C@@]4(C)[C@]3(C)C[C@@H](O)[C@@]23C[C@@H]1OC3=O`, for which the TGI with A549 NSCLC, in the test on SNB-19 CNS, in the test on MDA-MB-231 breast, in the test with RPMI-8226 leukemia, in the test with OVCAR-3 ovarian and in the test with HOP-92 NSCLC was more than 100 µM in each case. Also, the TGI with SR leukemia, with EKVX NSCLC, with OVCAR-8 ovarian, in the test on M14 melanoma and in the test with OVCAR-5 ovarian was more than 100 µM in each case.

As to `CNC(=O)C(C)NC(=O)C(Cc1ccccc1)NC(=O)OC(C)(C)C` (stereo not drawn), the TGI with A549 NSCLC, with SNB-19 CNS, with MDA-MB-231 breast, in the test with RPMI-8226 leukemia, with OVCAR-3 ovarian and in the test on HOP-92 NSCLC was more than 100 µM in each case. Further, the TGI in the test with SR leukemia, with EKVX NSCLC, with OVCAR-8 ovarian, in the test on M14 melanoma and in the test with OVCAR-5 ovarian was more than 100 µM each time.
